According to PubChem BioAssay (NCI):
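Following 48 hours of exposure in 96-well plates, responses at five concentrations were used to interpolate endpoints linearly. The concentration for 50% growth inhibition is given as GI50. TGI denotes the concentration required for complete inhibition of growth.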

Tests used:
Test in all cases: NCI tumour cell line growth inhibition, 48 h
786-0 renal = test system: 786-0 renal
A498 renal = test system: A498 renal
A549 NSCLC = test system: A549 NSCLC
ACHN renal = test system: ACHN renal
BT-549 breast = test system: BT-549 breast
CAKI-1 renal = test system: CAKI-1 renal
CCRF-CEM leukemia = test system: CCRF-CEM leukemia
COLO 205 colon = test system: COLO 205 colon
DU-145 prostate = test system: DU-145 prostate
EKVX NSCLC = test system: EKVX NSCLC
HCC-2998 colon = test system: HCC-2998 colon
HCT-116 colon = test system: HCT-116 colon
HCT-15 colon = test system: HCT-15 colon
HL-60(TB) leukemia = test system: HL-60(TB) leukemia
HOP-62 NSCLC = test system: HOP-62 NSCLC
HOP-92 NSCLC = test system: HOP-92 NSCLC
HS 578T breast = test system: HS 578T breast
HT29 colon = test system: HT29 colon
IGROV1 ovarian = test system: IGROV1 ovarian
KM12 colon = test system: KM12 colon
LOX IMVI melanoma = test system: LOX IMVI melanoma
MALME-3M melanoma = test system: MALME-3M melanoma
MCF7 breast = test system: MCF7 breast
MDA-MB-231 breast = test system: MDA-MB-231 breast
MDA-MB-435 = test system: MDA-MB-435
MOLT-4 leukemia = test system: MOLT-4 leukemia
NCI-H226 lung = test system: NCI-H226 lung
NCI-H23 lung = test system: NCI-H23 lung
NCI-H460 lung = test system: NCI-H460 lung
NCI-H522 lung = test system: NCI-H522 lung
NCI/ADR-RES ovarian = test system: NCI/ADR-RES ovarian
OVCAR-3 ovarian = test system: OVCAR-3 ovarian
OVCAR-4 ovarian = test system: OVCAR-4 ovarian
OVCAR-5 ovarian = test system: OVCAR-5 ovarian
OVCAR-8 ovarian = test system: OVCAR-8 ovarian
PC-3 prostate = test system: PC-3 prostate
RPMI-8226 leukemia = test system: RPMI-8226 leukemia
RXF 393 renal = test system: RXF 393 renal
SF-268 CNS = test system: SF-268 CNS
SF-295 CNS = test system: SF-295 CNS
SF-539 CNS = test system: SF-539 CNS
SK-MEL-2 melanoma = test system: SK-MEL-2 melanoma
SK-MEL-28 melanoma = test system: SK-MEL-28 melanoma
SK-MEL-5 melanoma = test system: SK-MEL-5 melanoma
SK-OV-3 ovarian = test system: SK-OV-3 ovarian
SN12C renal = test system: SN12C renal
SNB-19 CNS = test system: SNB-19 CNS
SNB-75 CNS = test system: SNB-75 CNS
SR leukemia = test system: SR leukemia
SW-620 colon = test system: SW-620 colon
T-47D breast = test system: T-47D breast
TK-10 renal = test system: TK-10 renal
U251 CNS = test system: U251 CNS
UACC-257 melanoma = test system: UACC-257 melanoma
UACC-62 melanoma = test system: UACC-62 melanoma
UO-31 renal = test system: UO-31 renal

`COc1ccc(-c2cc(-c3ccc(Cl)cc3)nc(SCCCC(=O)NO)n2)cc1OC` gave a GI50 (786-0 renal) of 591 nM, a TGI (786-0 renal) of 2680 nM and a GI50 (A498 renal) of 1220 nM. It also gave a TGI (A498 renal) of 2800 nM, a GI50 (A549 NSCLC) of 1580 nM and a TGI (A549 NSCLC) of 8590 nM. The GI50 (ACHN renal) was 364 nM, the TGI (ACHN renal) was 2040 nM and the GI50 (BT-549 breast) was 1940 nM. For the same molecule, the TGI (BT-549 breast) was 12000 nM, the GI50 (CAKI-1 renal) was 308 nM and the TGI (CAKI-1 renal) was 1540 nM. For the same molecule, the GI50 (CCRF-CEM leukemia) was 488 nM, the TGI (CCRF-CEM leukemia) was 33400 nM and the GI50 (COLO 205 colon) was 1730 nM. For the same molecule, the TGI (COLO 205 colon) was 5060 nM, the GI50 (DU-145 prostate) was 811 nM and the TGI (DU-145 prostate) was 4730 nM. The GI50 (EKVX NSCLC) was 1040 nM, the TGI (EKVX NSCLC) was 8890 nM and the GI50 (HCC-2998 colon) was 1500 nM. For the same molecule, the TGI (HCC-2998 colon) was 3050 nM, the GI50 (HCT-116 colon) was 433 nM and the TGI (HCT-116 colon) was > 100000 nM. The GI50 (HCT-15 colon) was 337 nM, the TGI (HCT-15 colon) was 1560 nM and the GI50 (HL-60(TB) leukemia) was 2480 nM. The TGI (HL-60(TB) leukemia) was 8560 nM, the GI50 (HOP-62 NSCLC) was 1010 nM and the TGI (HOP-62 NSCLC) was 6870 nM. It also gave a GI50 (HOP-92 NSCLC) of 1760 nM, a TGI (HOP-92 NSCLC) of 5330 nM and a GI50 (HS 578T breast) of 2310 nM. The TGI (HS 578T breast) was 11100 nM, the GI50 (HT29 colon) was 1460 nM and the TGI (HT29 colon) was > 26000 nM. It also gave a GI50 (IGROV1 ovarian) of 1040 nM, a TGI (IGROV1 ovarian) of 2690 nM and a GI50 (KM12 colon) of 1340 nM. For the same molecule, the TGI (KM12 colon) was 3220 nM, the GI50 (LOX IMVI melanoma) was 345 nM and the TGI (LOX IMVI melanoma) was 1440 nM. The GI50 (MALME-3M melanoma) was 1600 nM, the TGI (MALME-3M melanoma) was 5640 nM and the GI50 (MCF7 breast) was 1630 nM. For the same molecule, the TGI (MCF7 breast) was 5390 nM, the GI50 (MDA-MB-231 breast) was 788 nM and the TGI (MDA-MB-231 breast) was 4290 nM. For the same molecule, the GI50 (MDA-MB-435) was 1420 nM, the TGI (MDA-MB-435) was 3120 nM and the GI50 (MOLT-4 leukemia) was 855 nM. For the same molecule, the TGI (MOLT-4 leukemia) was 12500 nM, the GI50 (NCI-H226 lung) was 1200 nM and the TGI (NCI-H226 lung) was 5430 nM. For the same molecule, the GI50 (NCI-H23 lung) was 1290 nM, the TGI (NCI-H23 lung) was 5530 nM and the GI50 (NCI-H460 lung) was 466 nM. For the same molecule, the TGI (NCI-H460 lung) was 3400 nM, the GI50 (NCI-H522 lung) was 1300 nM and the TGI (NCI-H522 lung) was 4050 nM. For the same molecule, the GI50 (NCI/ADR-RES ovarian) was 368 nM, the TGI (NCI/ADR-RES ovarian) was 2540 nM and the GI50 (OVCAR-3 ovarian) was 423 nM. For the same molecule, the TGI (OVCAR-3 ovarian) was 2520 nM, the GI50 (OVCAR-4 ovarian) was 889 nM and the TGI (OVCAR-4 ovarian) was 12300 nM. The GI50 (OVCAR-5 ovarian) was 931 nM, the TGI (OVCAR-5 ovarian) was 4360 nM and the GI50 (OVCAR-8 ovarian) was 486 nM. The TGI (OVCAR-8 ovarian) was > 21000 nM, the GI50 (PC-3 prostate) was 944 nM and the TGI (PC-3 prostate) was 3030 nM. The GI50 (RPMI-8226 leukemia) was 946 nM, the TGI (RPMI-8226 leukemia) was 7440 nM and the GI50 (RXF 393 renal) was 417 nM. The TGI (RXF 393 renal) was 1660 nM, the GI50 (SF-268 CNS) was 1280 nM and the TGI (SF-268 CNS) was 3810 nM. For the same molecule, the GI50 (SF-295 CNS) was 926 nM, the TGI (SF-295 CNS) was 2750 nM and the GI50 (SF-539 CNS) was 1280 nM. The TGI (SF-539 CNS) was 3000 nM, the GI50 (SK-MEL-2 melanoma) was 2900 nM and the TGI (SK-MEL-2 melanoma) was 10800 nM. The GI50 (SK-MEL-28 melanoma) was 1200 nM, the TGI (SK-MEL-28 melanoma) was 2710 nM and the GI50 (SK-MEL-5 melanoma) was 1030 nM. It also gave a TGI (SK-MEL-5 melanoma) of 2400 nM, a GI50 (SK-OV-3 ovarian) of 1540 nM and a TGI (SK-OV-3 ovarian) of 4580 nM. For the same molecule, the GI50 (SN12C renal) was 819 nM, the TGI (SN12C renal) was 5640 nM and the GI50 (SNB-19 CNS) was 1570 nM. It also gave a TGI (SNB-19 CNS) of 4430 nM, a GI50 (SNB-75 CNS) of 1490 nM and a TGI (SNB-75 CNS) of 6310 nM. The GI50 (SR leukemia) was 354 nM, the TGI (SR leukemia) was > 100000 nM and the GI50 (SW-620 colon) was 578 nM. It also gave a TGI (SW-620 colon) of 2760 nM, a GI50 (T-47D breast) of 1880 nM and a TGI (T-47D breast) of 18100 nM. The GI50 (TK-10 renal) was 537 nM, the TGI (TK-10 renal) was 8280 nM and the GI50 (U251 CNS) was 799 nM. For the same molecule, the TGI (U251 CNS) was 7340 nM, the GI50 (UACC-257 melanoma) was 1810 nM and the TGI (UACC-257 melanoma) was 4890 nM. For the same molecule, the GI50 (UACC-62 melanoma) was 1010 nM, the TGI (UACC-62 melanoma) was 2860 nM and the GI50 (UO-31 renal) was 277 nM. The TGI (UO-31 renal) was 1090 nM.
